What was measured:
[1] = molecular target: T1, Phosphomannomutase (Saccharomyces cerevisiae, UniProt P07283); test: Phosphomannomutase inhibition test, coupled fluorescence assay (NADPH) in 384-well MTP; type: biochemical; conditions: negative decadic logarithm of the molar IC50 (50 % inhibition of the enzyme)
T1 construct: made in house; host or cells: E. coli BL21 (DE3), plasmid pSec53 (pGEX-4T-1)
T1 sequence (P07283 1-254): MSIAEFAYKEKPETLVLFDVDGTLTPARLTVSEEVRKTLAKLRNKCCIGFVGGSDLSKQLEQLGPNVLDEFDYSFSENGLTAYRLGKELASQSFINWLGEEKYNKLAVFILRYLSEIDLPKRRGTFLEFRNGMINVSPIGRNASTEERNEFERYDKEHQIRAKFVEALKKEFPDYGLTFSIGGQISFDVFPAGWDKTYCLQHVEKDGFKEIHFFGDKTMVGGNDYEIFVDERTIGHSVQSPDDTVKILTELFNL
Procedure: Die Messung kann auch in für HTS- oder UHTS-Assays gängigeren Formaten erfolgen, z.B. in Mikrotiterplatten, in denen z.B. ein Gesamtvolumen von 5 bis 50 µl pro Ansatz bzw. pro Well vorgelegt wird und die einzelnen Komponenten in einer der vorstehend angegebenen Endkonzentrationen vorliegen (vgl. Beispiel 2). Dabei wird die zu testende, potentiell die Aktivität des Enzyms inhibierende oder aktivierende Verbindung (Kandidatenmolekül) z.B. in einer geeigneten Konzentration im oben angegebenen Testpuffer enthaltend D-Mannose-1-phosphat vorgelegt. Dann wird das erfindungsgemäße Polypeptid in oben genanntem Testpuffer, enthaltend NADP^+, Glucose und die für den gekoppelten Assay notwendigen Hilfsenzyme Phosphoglucose Isomerase und Glucose-6-phosphat Dehydrogenase zugegeben und die Reaktion damit gestartet. Der Ansatz wird dann z.B. bis zu 2 oder 3 Stunden bei einer geeigneten Temperatur inkubiert und die Fluoreszenzzunahme bei einer Anregungswellenlänge von 360 nm und einer Emissionswellenlänge von 460 nm gemessen.
Eine weitere Messung erfolgt in einem entsprechenden Ansatz, jedoch ohne Zugabe eines Kandidatenmoleküls und ohne Zugabe eines erfindungsgemäßen Polypeptids (Negativkontrolle). Eine weitere Messung erfolgt wiederum bei Abwesenheit eines Kandidatenmoleküls, jedoch bei Anwesenheit des erfindungsgemäßen Polypeptids (Positivkontrolle). […]

[2] = tested on: Phytophtora infectans; test: Test of fungicidal action (fungal growth inhibition vs. untreated control; ED50 and Wirkungsgrad); type: cell-based
Procedure: Dazu können z.B. in die Kavitäten von Mikrotiterplatten eine Lösung des zu prüfenden Wirkstoffs pipettiert werden. Nachdem das Lösungsmittel abgedampft war, wird zu jeder Kavität Medium hinzugefügt. Das Medium wird vorher mit einer geeigneten Konzentration von Sporen bzw. Mycel des zu prüfenden Pilzes versetzt. Die resultierenden Konzentrationen des Wirkstoffes betragen z.B. 0,1, 1, 10 und 100 ppm.
Die Platten werden anschließend auf einem Schüttler bei einer Temperatur von 22°C inkubiert, bis in der unbehandelten Kontrolle ein ausreichendes Wachstum feststellbar ist.
Die Auswertung erfolgt dann photometrisch bei einer Wellenlänge von 620 nm. Aus den Messdaten der verschiedenen Konzentrationen kann die Wirkstoffdosis bestimmt werden, die zu einer 50 %igen Hemmung des Pilzwachstums gegenüber der unbehandelten Kontrolle führt (ED50).
Ein anderes Verfahren zur Prüfung der fungiziden Wirkung beruht darauf, die protektive Wirkung der zu testenden Verbindung an einer Pflanze zu testen. Dazu wird die Pflanze mit einer Lösung des zu prüfenden Wirkstoffs besprüht und anschließend mit einer Lösung von Pilzssporen inokuliert und über mehrere Tage hinweg beobachtet. Es kann dann im Vergleich zu einer Pflanze, die nicht vorab mit einer Wirkstofflösung behandelt wurde, festgestellt werden, ob der zu prüfende Wirkstoff den Befall bzw. die Ausbreitung des Pilzes verhindert oder mindert.
Auch hier kann die Wirkstoffkonzentration bestimmt werden, die zu einer 50 %igen Hemmung des Pilzwachstums gegenüber der unbehandelten Kontrolle führt (ED50).
Weiterhin kann als Größe zur Beurteilung einer fungiziden Wirkung der Wirkungsgrad herangezogen werden, wobei 0 % für einen Wirkungsgrad steht, der demjenigen der Kontrolle entspricht, während ein Wirkungsgrad von 100 % bedeutet, daß kein Befall beobachtet wird.
In die Kavitäten von Mikrotiterplatten wurde eine methanolische Lösung des anhand eines erfindungsgemäßen Verfahrens identifizierten Wirkstoffs (Tab. I, Bsp. 2), versetzt mit einem Emulgator, pipettiert. […]

## C[n+]1ccc(/C=C/c2ccc(N(c3ccc(/C=C/c4cc[n+](C)cc4)cc3)c3ccc(N(c4ccc(/C=C/c5cc[n+](C)cc5)cc4)c4ccc(/C=C/c5cc[n+](C)cc5)cc4)cc3)cc2)cc1 [Beispiel 2]
[1]
  pI50: 4,9
[2]; Phytophtora infectans, 50 % inhibition of fungal growth vs. untreated control
  ED50: 500 ppm
[2]; Phytophtora infectans, Wirkungsgrad: 0 % = like control, 100 % = no infestation
  WG: 33%
[2]; at the application rate given in Tabelle II
  fungizide Wirkung: deutlich fungizide Wirkung
